In the supplement of paper PMC11208160:

Experiment: recombinant UMI read abundance after kanamycin selection (control-corrected) (log10(CPM+1)); higher = more efficient recombination; extreme values may be limits of the assay; sequences stand for … in AGTGCAGAGAAAATCGGCCAGTTTTCTCTGCCTGCAGTCCGCATGCCGTGGGACCCCTTGGGTTCTAACCTGTTGCCTAGATTTATGCAGCGGACTGCCTTTCTCCCAAAGTGATAAACCGG…AGGTTGGTTTCACT; site = the 11-nt donor
Summary of the method: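 Under IPTG (0.07 mM) plus kanamycin, or without selection, Escherichia coli carrying a UMI-tagged donor and donor-binding-loop pair library and a target plasmid for the IS621 bridge recombinase were plated in two replicates. Recombinant UMIs were PCR-amplified across the donor–target junction and sequenced. Counts were converted to CPM, averaged over replicates, scaled by control-derived factors and reported as log10(CPM+1).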
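Note: IS621 bridge recombinase in Escherichia coli cells against a fixed T5 target plasmid.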

| Sequence | recombinant UMI read abundance (log10) |
| --- | --- |
| TGTACACCATGGACCGGTTTTCCCGGTAATCCGTATTTGAA (site TGTACACCTAT) | 0.0146 |
| TGTACACCATGGACCGGTTTTCCCGGTAATCCGTATTTGAA (site TGTACACCTCT) | 0.00905 |
| TGTACACCATGGACCGGTTTTCCCGGTAATCCGTATTTGAA (site TGTACACCTGT) | 0 |
| TGTACACCATGGACCGGTTTTCCCGGTAATCCGTATTTGAA (site TGTACACCTTT) | 0.0198 |
| TGTACACCATGGACCGGTTTTCCCGGTAATCCGTATTTGAT (site TGTACACCTAT) | 0.00557 |
| TGTACACCATGGACCGGTTTTCCCGGTAATCCGTATTTGAT (site TGTACACCTCT) | 0 |
| TGTACACCATGGACCGGTTTTCCCGGTAATCCGTATTTGAT (site TGTACACCTGT) | 0 |
| TGTACACCATGGACCGGTTTTCCCGGTAATCCGTATTTGAT (site TGTACACCTTT) | 0.00971 |
| TGTACCCCATGGACCGGTTTTCCCGGTAATCCGTATTTGAC (site TGTACACCTGT) | 0 |
| TGTACCCCATGGACCGGTTTTCCCGGTAATCCGTATTTGAC (site TGTACCCCTGT) | 1.52 |
| TGTACCCCATGGACCGGTTTTCCCGGTAATCCGTATTTGAC (site TGTACGCCTGT) | 0 |
| TGTACCCCATGGACCGGTTTTCCCGGTAATCCGTATTTGAC (site TGTACTCCTGT) | 0.00417 |
| TGTACTCCATGGACCGGTTTTCCCGGTAATCCGTATTTGAC (site TGTACACCTGT) | 0 |
| TGTACTCCATGGACCGGTTTTCCCGGTAATCCGTATTTGAC (site TGTACCCCTGT) | 0.817 |
| TGTACTCCATGGACCGGTTTTCCCGGTAATCCGTATTTGAC (site TGTACGCCTGT) | 0 |
| TGTACTCCATGGACCGGTTTTCCCGGTAATCCGTATTTGAC (site TGTACTCCTGT) | 0 |
| TGTAGTGCATGGACCGGTTTTCCCGGTAATCCGTATTTGCG (site TGTAGTGCTCG) | 0.963 |
| TGTCCCCCATGGACCGGTTTTCCCGGTAATCCGTATTTGTA (site TGTACCCCTTA) | 0.013 |
| TGTCCCCCATGGACCGGTTTTCCCGGTAATCCGTATTTGTA (site TGTCCCCCTTA) | 0.0699 |
| TGTCCCCCATGGACCGGTTTTCCCGGTAATCCGTATTTGTA (site TGTGCCCCTTA) | 0.0174 |
| TGTCCCCCATGGACCGGTTTTCCCGGTAATCCGTATTTGTA (site TGTTCCCCTTA) | 0.0128 |
| TGTCTAACATGGACCGGTTTTCCCGGTAATCCGTATTTGGC (site TGTCTAACTGC) | 0.011 |
| TGTCTATCATGGACCGGTTTTCCCGGTAATCCGTATTTGAC (site TGTCTATCTGT) | 0 |

| Sequence | recombinant UMI read abundance (log10) |
| --- | --- |
| TGTGATACATGGACCGGTTTTCCCGGTAATCCGTATTTGCC (site TGTGATACTGG) | 0 |
| TGTGATTCATGGACCGGTTTTCCCGGTAATCCGTATTTGTG (site TGTGATTCTCA) | 0.304 |
| TGTGCAGCATGGACCGGTTTTCCCGGTAATCCGTATTTGGT (site TGTGCAGCTAC) | 0.0104 |
| TGTGCGTCATGGACCGGTTTTCCCGGTAATCCGTATTTGGT (site TGTGCGTCTAC) | 0.348 |
| TGTGGAGCATGGACCGGTTTTCCCGGTAATCCGTATTTGGC (site TGTGGAGCTGC) | 1.6 |
| TGTGGTACATGGACCGGTTTTCCCGGTAATCCGTATTTGGC (site TGTGGTACTGC) | 0.698 |
| TGTGTAACATGGACCGGTTTTCCCGGTAATCCGTATTTGGG (site TGTGTAACTCC) | 0.0344 |
| TGTGTATCATGGACCGGTTTTCCCGGTAATCCGTATTTGAT (site TGTGTATCTAT) | 0.398 |
| TGTTATACATGGACCGGTTTTCCCGGTAATCCGTATTTGCA (site TGTTATACTTG) | 1.64 |
| TGTTCAGCATGGACCGGTTTTCCCGGTAATCCGTATTTGTA (site TGTTCAGCTTA) | 0.141 |
| TGTTCCACATGGACCGGTTTTCCCGGTAATCCGTATTTGTA (site TGTTCCACTTA) | 0.225 |
| TGTTCCACATGGACCGGTTTTCCCGGTAATCCGTATTTGTA (site TGTTCCCCTTA) | 0.00983 |
| TGTTCCACATGGACCGGTTTTCCCGGTAATCCGTATTTGTA (site TGTTCCGCTTA) | 0.0123 |
| TGTTCCACATGGACCGGTTTTCCCGGTAATCCGTATTTGTA (site TGTTCCTCTTA) | 0.0149 |
| TGTTCCGCATGGACCGGTTTTCCCGGTAATCCGTATTTGGC (site TGTTCCGCTGC) | 0.484 |
| TGTTCCTCATGGACCGGTTTTCCCGGTAATCCGTATTTGTA (site TGTTCCACTTA) | 0.0142 |
| TGTTCCTCATGGACCGGTTTTCCCGGTAATCCGTATTTGTA (site TGTTCCCCTTA) | 0.00558 |
| TGTTCCTCATGGACCGGTTTTCCCGGTAATCCGTATTTGTA (site TGTTCCGCTTA) | 0 |
| TGTTCCTCATGGACCGGTTTTCCCGGTAATCCGTATTTGTA (site TGTTCCTCTTA) | 1.06 |
| TGTTCGCCATGGACCGGTTTTCCCGGTAATCCGTATTTGTA (site TGTTCACCTTA) | 0 |
| TGTTCGCCATGGACCGGTTTTCCCGGTAATCCGTATTTGTA (site TGTTCCCCTTA) | 0.0392 |
| TGTTCGCCATGGACCGGTTTTCCCGGTAATCCGTATTTGTA (site TGTTCGCCTTA) | 0.0127 |
| TGTTCGCCATGGACCGGTTTTCCCGGTAATCCGTATTTGTA (site TGTTCTCCTTA) | 0 |

| Sequence | recombinant UMI read abundance (log10) |
| --- | --- |
| TGTTTCCCATGGACCGGTTTTCCCGGTAATCCGTATTTGTA (site TGTTACCCTTA) | 0.139 |
| TGTTTCCCATGGACCGGTTTTCCCGGTAATCCGTATTTGTA (site TGTTCCCCTTA) | 0.0148 |
| TGTTTCCCATGGACCGGTTTTCCCGGTAATCCGTATTTGTA (site TGTTGCCCTTA) | 0.0291 |
| TGTTTCCCATGGACCGGTTTTCCCGGTAATCCGTATTTGTA (site TGTTTCCCTTA) | 0.152 |
| TGTTTGGCATGGACCGGTTTTCCCGGTAATCCGTATTTGCT (site AGTTTGGCTAG) | 0 |
| TGTTTGGCATGGACCGGTTTTCCCGGTAATCCGTATTTGCT (site CGTTTGGCTAG) | 0.00328 |
| TGTTTGGCATGGACCGGTTTTCCCGGTAATCCGTATTTGCT (site GGTTTGGCTAG) | 0.0409 |
| TGTTTGGCATGGACCGGTTTTCCCGGTAATCCGTATTTGCT (site TGTTTGGCTAG) | 0 |
| TTAATTTCATGGACCGGTTTTCCCGGTAATCCGTATTTGAA (site TTAATTTCTTT) | 0 |
| TTACCTGCATGGACCGGTTTTCCCGGTAATCCGTATTTGTG (site TTAACTGCTCA) | 0.013 |
| TTACCTGCATGGACCGGTTTTCCCGGTAATCCGTATTTGTG (site TTACCTGCTCA) | 0.0157 |
| TTACCTGCATGGACCGGTTTTCCCGGTAATCCGTATTTGTG (site TTAGCTGCTCA) | 0.00404 |
| TTACCTGCATGGACCGGTTTTCCCGGTAATCCGTATTTGTG (site TTATCTGCTCA) | 0.00944 |
| TTACGTCCATGGACCGGTTTTCCCGGTAATCCGTATTTGGT (site TTACGTCCTAC) | 0.02 |
| TTACTGACATGGACCGGTTTTCCCGGTAATCCGTATTTGCC (site GGTTATCCTTC) | 0.00491 |
| TTAGAGACATGGACCGGTTTTCCCGGTAATCCGTATTTGCG (site TAAGAGACTCG) | 0.923 |
| TTAGAGACATGGACCGGTTTTCCCGGTAATCCGTATTTGCG (site TCAGAGACTCG) | 1.03 |
| TTAGAGACATGGACCGGTTTTCCCGGTAATCCGTATTTGCG (site TGAGAGACTCG) | 0.02 |
| TTAGAGACATGGACCGGTTTTCCCGGTAATCCGTATTTGCG (site TTAGAGACTCG) | 2.16 |
| TTAGATGCATGGACCGGTTTTCCCGGTAATCCGTATTTGCC (site TTAGATGCTGG) | 1.9 |
| TTAGCAGCATGGACCGGTTTTCCCGGTAATCCGTATTTGCC (site TTAGCAGCTGG) | 2.61 |
| TTAGCAGCATGGACCGGTTTTCCCGGTAATCCGTATTTGTG (site TTAGCAGCTCA) | 0.707 |
